Reference: article PMC6429309 (Molecules, 2019)
Values after ≈ are worked out from the molar mass of the structure shown. Values joined by “and” are separate entries in the source; they are usually repeats but may differ in a detail not shown here. Equal entries are not always repeated.

The compounds below were run on Xanthomonas oryzae pv. oryzae (Xoo) (assay: microbe, parasite or virus in culture). Conditions: 50 μg/mL, in vitro, strain PXO99A, average of three replicates.
Assay type: cell-based

Point of comparison: `S=c1[nH]nc(NCNc2n[nH]c(=S)s2)s1` [Bismerthiazol, bismerthiazol, reference compound], “Antibacterial activity (inhibition rate) against Xoo” value 45.2 ± 2.0%. Against it:
- Nc1nnc([S-])s1.Nc1nnc([S-])s1.[Cu+2] [Thiodiazole-copper, thiodiazole-copper, reference compound] — lower, 37.2 ± 3.2%

Same assay, conditions: 100 μg/mL, in vitro, strain PXO99A, average of three replicates

Point of comparison: `S=c1[nH]nc(NCNc2n[nH]c(=S)s2)s1` [Bismerthiazol, bismerthiazol, reference compound], “Antibacterial activity (inhibition rate) against Xoo” value 64.9 ± 3.9%. Against it:
- Nc1nnc([S-])s1.Nc1nnc([S-])s1.[Cu+2] [Thiodiazole-copper, thiodiazole-copper, reference compound] — lower, 50.2 ± 0.9%

Same assay, conditions: Xanthomonas oryzae, read-out: Antibacterial activity (inhibition rate) against Xoo

Point of comparison: `COP(=O)(OC)Oc1ccccc1/C=C/C(=O)/C=C/c1ccc(Br)cc1` [3n], inhibition at 50 µg/mL 18.8 ± 1.1%. Against it:
- COP(=O)(OC)Oc1ccccc1/C=C/C(=O)/C=C/c1cccc(C(F)(F)F)c1 [3p] — higher, 21.8 ± 1.5%
- COP(=O)(OC)Oc1ccccc1/C=C/C(=O)/C=C/c1ccccc1Cl [3e] — higher, 65.3 ± 1.9%
- CCOP(=O)(OCC)Oc1ccccc1/C=C/C(=O)/C=C/c1ccc(OC)cc1 [3d] — higher, 32.6 ± 2.2%
- CCOP(=O)(OCC)Oc1ccccc1/C=C/C(=O)/C=C/c1ccc(C)cc1 [3k] — higher, 39.4 ± 0.4%
- COP(=O)(OC)Oc1ccccc1/C=C/C(=O)/C=C/c1ccc([N+](=O)[O-])cc1 [3i] — higher, 43.9%
- CCOP(=O)(OCC)Oc1ccccc1/C=C/C(=O)/C=C/c1cccc(C(F)(F)F)c1 [3q] — within error, 20.3 ± 3.1%
- CCOP(=O)(OCC)Oc1ccccc1/C=C/C(=O)/C=C/c1ccc(Br)cc1 [3o] — within error, 19.9 ± 3.7%
- COP(=O)(OC)Oc1ccccc1/C=C/C(=O)/C=C/c1ccccc1 [3l] — within error, 16.7 ± 5.3%
- COc1ccc(/C=C/C(=O)/C=C/c2ccccc2OP(=O)(OC)OC)cc1 [3c] — higher, 23.4 ± 0.9%
- CCOP(=O)(OCC)Oc1ccccc1/C=C/C(=O)/C=C/c1cccc([N+](=O)[O-])c1 [3h] — higher, 78.1 ± 1.4%
- CCOP(=O)(OCC)Oc1ccccc1/C=C/C(=O)/C=C/c1cccc(C)c1 [3s] — within error, 12.5 ± 6%
- COP(=O)(OC)Oc1ccccc1/C=C/C(=O)/C=C/c1ccc(Cl)cc1 [3a, 2-((1E,4E)-5-(4-chlorophenyl)-3-oxopenta-1,4-dien-1-yl)phenyl dimethyl phosphate] — higher, 83.9 ± 2.1%
- CCOP(=O)(OCC)Oc1ccccc1/C=C/C(=O)/C=C/c1ccccc1 [3m] — lower, 2.5 ± 5.7%
- CCOP(=O)(OCC)Oc1ccccc1/C=C/C(=O)/C=C/c1ccc([N+](=O)[O-])cc1 [3j] — higher, 81.4 ± 0.9%
- COP(=O)(OC)Oc1ccccc1/C=C/C(=O)/C=C/c1cccc(C)c1 [3r] — within error, 21 ± 2.2%
- CCOP(=O)(OCC)Oc1ccccc1/C=C/C(=O)/C=C/c1ccccc1Cl [3f] — higher, 35.7 ± 3.4%
- CCOP(=O)(OCC)Oc1ccccc1/C=C/C(=O)/C=C/c1ccc(Cl)cc1 [3b] — higher, 35 ± 4.4%

Point of comparison: `COP(=O)(OC)Oc1ccccc1/C=C/C(=O)/C=C/c1ccccc1` [3l], inhibition at 100 µg/mL 35.9 ± 2.9%. Against it:
- COP(=O)(OC)Oc1ccccc1/C=C/C(=O)/C=C/c1cccc(C(F)(F)F)c1 [3p] — lower, 25 ± 3.1%
- COP(=O)(OC)Oc1ccccc1/C=C/C(=O)/C=C/c1ccccc1Cl [3e] — higher, 69.4 ± 0.6%
- CCOP(=O)(OCC)Oc1ccccc1/C=C/C(=O)/C=C/c1ccc(OC)cc1 [3d] — within error, 35.7 ± 1.1%
- CCOP(=O)(OCC)Oc1ccccc1/C=C/C(=O)/C=C/c1ccc(C)cc1 [3k] — higher, 41.5 ± 0.6%
- COP(=O)(OC)Oc1ccccc1/C=C/C(=O)/C=C/c1ccc([N+](=O)[O-])cc1 [3i] — higher, 56.6 ± 1.3%
- CCOP(=O)(OCC)Oc1ccccc1/C=C/C(=O)/C=C/c1cccc(C(F)(F)F)c1 [3q] — within error, 31.5 ± 2.1%
- CCOP(=O)(OCC)Oc1ccccc1/C=C/C(=O)/C=C/c1ccc(Br)cc1 [3o] — within error, 31.4 ± 2.2%
- COP(=O)(OC)Oc1ccccc1/C=C/C(=O)/C=C/c1ccc(Br)cc1 [3n] — lower, 23.8 ± 5.3%
- COc1ccc(/C=C/C(=O)/C=C/c2ccccc2OP(=O)(OC)OC)cc1 [3c] — lower, 25.5 ± 0.9%
- CCOP(=O)(OCC)Oc1ccccc1/C=C/C(=O)/C=C/c1cccc([N+](=O)[O-])c1 [3h] — higher, 86.5 ± 1.9%
- CCOP(=O)(OCC)Oc1ccccc1/C=C/C(=O)/C=C/c1cccc(C)c1 [3s] — within error, 29.5 ± 4.8%
- COP(=O)(OC)Oc1ccccc1/C=C/C(=O)/C=C/c1ccc(Cl)cc1 [3a, 2-((1E,4E)-5-(4-chlorophenyl)-3-oxopenta-1,4-dien-1-yl)phenyl dimethyl phosphate] — higher, 85 ± 2.1%
- CCOP(=O)(OCC)Oc1ccccc1/C=C/C(=O)/C=C/c1ccccc1 [3m] — within error, 28.7 ± 9.1%
- CCOP(=O)(OCC)Oc1ccccc1/C=C/C(=O)/C=C/c1ccc([N+](=O)[O-])cc1 [3j] — higher, 85.5 ± 0.8%
- COP(=O)(OC)Oc1ccccc1/C=C/C(=O)/C=C/c1cccc(C)c1 [3r] — higher, 42.4 ± 1.4%
- CCOP(=O)(OCC)Oc1ccccc1/C=C/C(=O)/C=C/c1ccccc1Cl [3f] — within error, 36.4 ± 3.1%
- CCOP(=O)(OCC)Oc1ccccc1/C=C/C(=O)/C=C/c1ccc(Cl)cc1 [3b] — within error, 37 ± 2.9%

Same assay, conditions: Xanthomonas oryzae, read-out: EC50 against Xoo

Point of comparison: `COP(=O)(OC)Oc1ccccc1/C=C/C(=O)/C=C/c1ccccc1Cl` [3e], EC50 46 µg/mL (≈ 117 µM). Against it:
- CCOP(=O)(OCC)Oc1ccccc1/C=C/C(=O)/C=C/c1cccc([N+](=O)[O-])c1 [3h] — 2.4-fold lower, 19.1 µg/mL (≈ 44.3 µM)
- COP(=O)(OC)Oc1ccccc1/C=C/C(=O)/C=C/c1ccc(Cl)cc1 [3a, 2-((1E,4E)-5-(4-chlorophenyl)-3-oxopenta-1,4-dien-1-yl)phenyl dimethyl phosphate] — within 1.5-fold, 35.8 µg/mL
- CCOP(=O)(OCC)Oc1ccccc1/C=C/C(=O)/C=C/c1ccc([N+](=O)[O-])cc1 [3j] — 2.6-fold lower, 17.7 µg/mL (≈ 41 µM)

Same assay, conditions: in vitro, five concentrations 100-6.25 μg/mL

Point of comparison: `Nc1nnc([S-])s1.Nc1nnc([S-])s1.[Cu+2]` [Thiodiazole-copper, thiodiazole-copper, reference compound], “EC50 against Xoo” value 78.7 µg/mL. Against it:
- S=c1[nH]nc(NCNc2n[nH]c(=S)s2)s1 [Bismerthiazol, bismerthiazol, reference compound] — within 1.5-fold, 58.8 µg/mL (≈ 211 µM)

What follows are compounds tested on Xanthomonas axonopodis pv. citri (Xac) (assay: microbe, parasite or virus in culture). Conditions: not given.
Assay type: cell-based

Point of comparison: `Nc1nnc([S-])s1.Nc1nnc([S-])s1.[Cu+2]` [Thiodiazole-copper, thiodiazole-copper, reference compound], “EC50 against Xac” value 87.9 µg/mL. Against it:
- S=c1[nH]nc(NCNc2n[nH]c(=S)s2)s1 [Bismerthiazol, bismerthiazol, reference compound] — 2-fold lower, 44.5 µg/mL (≈ 160 µM)

In the case of `S=c1[nH]nc(NCNc2n[nH]c(=S)s2)s1` [Bismerthiazol, bismerthiazol, reference compound], the “Antibacterial activity (inhibition rate) against Xac” value is reported as 70.3±2.8% and 54.9 ± 5.5%.

Same assay, conditions: Xanthomonas axonopodis, read-out: Antibacterial activity (inhibition rate) against Xac

Point of comparison: `CCOP(=O)(OCC)Oc1ccccc1/C=C/C(=O)/C=C/c1ccc(Cl)cc1` [3b], inhibition at 50 µg/mL 53 ± 3.6%. Against it:
- COP(=O)(OC)Oc1ccccc1/C=C/C(=O)/C=C/c1cccc(C(F)(F)F)c1 [3p] — lower, 11.5 ± 1.8%
- COP(=O)(OC)Oc1ccccc1/C=C/C(=O)/C=C/c1ccccc1Cl [3e] — higher, 67.9 ± 4.3%
- CCOP(=O)(OCC)Oc1ccccc1/C=C/C(=O)/C=C/c1ccc(OC)cc1 [3d] — lower, 34.9 ± 1.5%
- CCOP(=O)(OCC)Oc1ccccc1/C=C/C(=O)/C=C/c1ccc(C)cc1 [3k] — within error, 47.7 ± 3.1%
- COP(=O)(OC)Oc1ccccc1/C=C/C(=O)/C=C/c1ccc([N+](=O)[O-])cc1 [3i] — within error, 50.8 ± 4.2%
- CCOP(=O)(OCC)Oc1ccccc1/C=C/C(=O)/C=C/c1cccc(C(F)(F)F)c1 [3q] — lower, 5.4 ± 2.6%
- CCOP(=O)(OCC)Oc1ccccc1/C=C/C(=O)/C=C/c1ccc(Br)cc1 [3o] — lower, 23 ± 2.7%
- COP(=O)(OC)Oc1ccccc1/C=C/C(=O)/C=C/c1ccccc1 [3l] — lower, 29.2 ± 4.3%
- COP(=O)(OC)Oc1ccccc1/C=C/C(=O)/C=C/c1ccc(Br)cc1 [3n] — lower, 2.5 ± 0.9%
- COc1ccc(/C=C/C(=O)/C=C/c2ccccc2OP(=O)(OC)OC)cc1 [3c] — within error, 53.5 ± 2.5%
- CCOP(=O)(OCC)Oc1ccccc1/C=C/C(=O)/C=C/c1cccc([N+](=O)[O-])c1 [3h] — within error, 48.5 ± 4.2%
- CCOP(=O)(OCC)Oc1ccccc1/C=C/C(=O)/C=C/c1cccc(C)c1 [3s] — lower, 8.5 ± 3.8%
- COP(=O)(OC)Oc1ccccc1/C=C/C(=O)/C=C/c1ccc(Cl)cc1 [3a, 2-((1E,4E)-5-(4-chlorophenyl)-3-oxopenta-1,4-dien-1-yl)phenyl dimethyl phosphate] — within error, 50.6 ± 4.6%
- CCOP(=O)(OCC)Oc1ccccc1/C=C/C(=O)/C=C/c1ccccc1 [3m] — lower, 18 ± 2.9%
- CCOP(=O)(OCC)Oc1ccccc1/C=C/C(=O)/C=C/c1ccc([N+](=O)[O-])cc1 [3j] — within error, 52.9 ± 5.4%
- COP(=O)(OC)Oc1ccccc1/C=C/C(=O)/C=C/c1cccc(C)c1 [3r] — lower, 10.3 ± 2.5%
- CCOP(=O)(OCC)Oc1ccccc1/C=C/C(=O)/C=C/c1ccccc1Cl [3f] — within error, 52.9 ± 2.1%

Point of comparison: `CCOP(=O)(OCC)Oc1ccccc1/C=C/C(=O)/C=C/c1cccc([N+](=O)[O-])c1` [3h], inhibition at 100 µg/mL 54.8 ± 3.8%. Against it:
- COP(=O)(OC)Oc1ccccc1/C=C/C(=O)/C=C/c1cccc(C(F)(F)F)c1 [3p] — lower, 20.2 ± 0.8%
- COP(=O)(OC)Oc1ccccc1/C=C/C(=O)/C=C/c1ccccc1Cl [3e] — higher, 77.6 ± 2.8%
- CCOP(=O)(OCC)Oc1ccccc1/C=C/C(=O)/C=C/c1ccc(OC)cc1 [3d] — lower, 46.4 ± 1.1%
- CCOP(=O)(OCC)Oc1ccccc1/C=C/C(=O)/C=C/c1ccc(C)cc1 [3k] — within error, 52.6 ± 2.9%
- COP(=O)(OC)Oc1ccccc1/C=C/C(=O)/C=C/c1ccc([N+](=O)[O-])cc1 [3i] — within error, 50.9 ± 4.5%
- CCOP(=O)(OCC)Oc1ccccc1/C=C/C(=O)/C=C/c1cccc(C(F)(F)F)c1 [3q] — lower, 25.4 ± 0.5%
- CCOP(=O)(OCC)Oc1ccccc1/C=C/C(=O)/C=C/c1ccc(Br)cc1 [3o] — lower, 28.4 ± 3.4%
- COP(=O)(OC)Oc1ccccc1/C=C/C(=O)/C=C/c1ccccc1 [3l] — within error, 49.4 ± 8%
- COP(=O)(OC)Oc1ccccc1/C=C/C(=O)/C=C/c1ccc(Br)cc1 [3n] — lower, 16.1 ± 3.8%
- COc1ccc(/C=C/C(=O)/C=C/c2ccccc2OP(=O)(OC)OC)cc1 [3c] — within error, 57.5 ± 2.1%
- CCOP(=O)(OCC)Oc1ccccc1/C=C/C(=O)/C=C/c1cccc(C)c1 [3s] — lower, 27.4 ± 1.7%
- COP(=O)(OC)Oc1ccccc1/C=C/C(=O)/C=C/c1ccc(Cl)cc1 [3a, 2-((1E,4E)-5-(4-chlorophenyl)-3-oxopenta-1,4-dien-1-yl)phenyl dimethyl phosphate] — within error, 59.7 ± 1.8%
- CCOP(=O)(OCC)Oc1ccccc1/C=C/C(=O)/C=C/c1ccccc1 [3m] — lower, 27.4 ± 0.6%
- CCOP(=O)(OCC)Oc1ccccc1/C=C/C(=O)/C=C/c1ccc([N+](=O)[O-])cc1 [3j] — higher, 61.9 ± 1.1%
- COP(=O)(OC)Oc1ccccc1/C=C/C(=O)/C=C/c1cccc(C)c1 [3r] — lower, 20.5 ± 1.2%
- CCOP(=O)(OCC)Oc1ccccc1/C=C/C(=O)/C=C/c1ccccc1Cl [3f] — within error, 53.1 ± 2.1%
- CCOP(=O)(OCC)Oc1ccccc1/C=C/C(=O)/C=C/c1ccc(Cl)cc1 [3b] — within error, 53.1 ± 3.2%

Same assay, conditions: Xanthomonas axonopodis, read-out: EC50 against Xac

Point of comparison: `COP(=O)(OC)Oc1ccccc1/C=C/C(=O)/C=C/c1ccccc1Cl` [3e], EC50 22.9 µg/mL (≈ 58.3 µM). Against it:
- COP(=O)(OC)Oc1ccccc1/C=C/C(=O)/C=C/c1ccc(Cl)cc1 [3a, 2-((1E,4E)-5-(4-chlorophenyl)-3-oxopenta-1,4-dien-1-yl)phenyl dimethyl phosphate] — 2-fold higher, 45 µg/mL
- CCOP(=O)(OCC)Oc1ccccc1/C=C/C(=O)/C=C/c1ccc(Cl)cc1 [3b] — within 1.5-fold, 34.1 µg/mL (≈ 81 µM)
